A short description of this data set: Properties and self-adherence of films of PEA 4-Phe-4 mixed with EAC-2 cross-linkers, dry and after 24 h in water. The class given is physicochemical. Details: key to Self-adherence: (—) means: no self-adherence observed. Conditions: for Self-adherence: folded film in water 24 hours; for Dry: dry film; for Wet: pre-soaked in water at room temperature 24 hours. From the text:
At the first stage, this Example addresses the question of whether invention cross-linking agents can be used as plasticizers without causing the composition to undesirably adhere to the surface of other materials (for example, steel, and other medical device surfaces).

Regarding `C=C(C)C(=O)N[C@@H](Cc1ccccc1)C(=O)OCCCCCCOC(=O)[C@H](Cc1ccccc1)NC(=O)C(=C)C` [Phe-6-MA, dimethacrylate of bis(L-Phe)-1,6-hexanediol diester], where the note is “PEA 4-Phe-4/EAC-2 40/60 w/w”, the Self-adherence result was “—”. For the setting “PEA 4-Phe-4/EAC-2 60/40 w/w”, the Dry entry was “Hard”, the Self-adherence entry is “—” and the Wet entry is “Elastic”. Also, where the note is “PEA 4-Phe-4/EAC-2 80/20 w/w”, the Dry entry is “Hard” and the Self-adherence entry is recorded as “—”.

`CC(C)CC(NC(=O)C=Cc1ccccc1)C(=O)OCCCCCCOC(=O)C(CC(C)C)NC(=O)C=Cc1ccccc1` (stereo not shown) [Leu-6-CA]: the Self-adherence result is, setting by setting: (PEA 4-Phe-4/EAC-2 40/60 w/w) “—”; (PEA 4-Phe-4/EAC-2 60/40 w/w) “—”; (PEA 4-Phe-4/EAC-2 80/20 w/w) “—”. The Dry entry (PEA 4-Phe-4/EAC-2 60/40 w/w) is recorded as “Elastic”.

As for `C=C(C)C(=O)NC(CC(C)C)C(=O)OCCCCCCOC(=O)C(CC(C)C)NC(=O)C(=C)C` (stereo not shown) [Leu-6-MA], the Self-adherence result reads like this: (PEA 4-Phe-4/EAC-2 40/60 w/w) “—”; (PEA 4-Phe-4/EAC-2 60/40 w/w) “—”; (PEA 4-Phe-4/EAC-2 80/20 w/w) “—”.

Consider `C=CC(=O)NC(CC(C)C)C(=O)OCCCCCCOC(=O)C(CC(C)C)NC(=O)C=C` (stereo not shown) [Leu-6-AA], for which the Self-adherence result (PEA 4-Phe-4/EAC-2 40/60 w/w) is “—”, the Self-adherence result (PEA 4-Phe-4/EAC-2 60/40 w/w) is recorded as “—” and the Self-adherence result (PEA 4-Phe-4/EAC-2 80/20 w/w) is listed as “—”. In addition, the Wet entry (PEA 4-Phe-4/EAC-2 60/40 w/w) was “Brittle”. Besides, under “PEA 4-Phe-4/EAC-2 80/20 w/w”, the Dry entry is listed as “Hard”.

Consider `O=C(C=Cc1ccccc1)NC(Cc1ccccc1)C(=O)OCCCCCCOC(=O)C(Cc1ccccc1)NC(=O)C=Cc1ccccc1` (stereo not shown) [Phe-6-CA], for which the Dry entry is, setting by setting: (PEA 4-Phe-4/EAC-2 40/60 w/w) “Brittle”; (PEA 4-Phe-4/EAC-2 60/40 w/w) “Brittle”; (PEA 4-Phe-4/EAC-2 80/20 w/w) “Hard”. Besides, the Self-adherence entry is, setting by setting: (PEA 4-Phe-4/EAC-2 40/60 w/w) “—”; (PEA 4-Phe-4/EAC-2 60/40 w/w) “—”; (PEA 4-Phe-4/EAC-2 80/20 w/w) “—”. Further, the Wet result (PEA 4-Phe-4/EAC-2 60/40 w/w) is listed as “Elastic”.

The values are drawn from patent US7649022B2, “Bioabsorbable elastomeric polymer networks, cross-linkers and methods of use” (priority 2007, dated 2010).
